The target in one test is T1, NOD1 (Homo sapiens, UniProt Q9Y239).
T1 sequence (Q9Y239 1-953): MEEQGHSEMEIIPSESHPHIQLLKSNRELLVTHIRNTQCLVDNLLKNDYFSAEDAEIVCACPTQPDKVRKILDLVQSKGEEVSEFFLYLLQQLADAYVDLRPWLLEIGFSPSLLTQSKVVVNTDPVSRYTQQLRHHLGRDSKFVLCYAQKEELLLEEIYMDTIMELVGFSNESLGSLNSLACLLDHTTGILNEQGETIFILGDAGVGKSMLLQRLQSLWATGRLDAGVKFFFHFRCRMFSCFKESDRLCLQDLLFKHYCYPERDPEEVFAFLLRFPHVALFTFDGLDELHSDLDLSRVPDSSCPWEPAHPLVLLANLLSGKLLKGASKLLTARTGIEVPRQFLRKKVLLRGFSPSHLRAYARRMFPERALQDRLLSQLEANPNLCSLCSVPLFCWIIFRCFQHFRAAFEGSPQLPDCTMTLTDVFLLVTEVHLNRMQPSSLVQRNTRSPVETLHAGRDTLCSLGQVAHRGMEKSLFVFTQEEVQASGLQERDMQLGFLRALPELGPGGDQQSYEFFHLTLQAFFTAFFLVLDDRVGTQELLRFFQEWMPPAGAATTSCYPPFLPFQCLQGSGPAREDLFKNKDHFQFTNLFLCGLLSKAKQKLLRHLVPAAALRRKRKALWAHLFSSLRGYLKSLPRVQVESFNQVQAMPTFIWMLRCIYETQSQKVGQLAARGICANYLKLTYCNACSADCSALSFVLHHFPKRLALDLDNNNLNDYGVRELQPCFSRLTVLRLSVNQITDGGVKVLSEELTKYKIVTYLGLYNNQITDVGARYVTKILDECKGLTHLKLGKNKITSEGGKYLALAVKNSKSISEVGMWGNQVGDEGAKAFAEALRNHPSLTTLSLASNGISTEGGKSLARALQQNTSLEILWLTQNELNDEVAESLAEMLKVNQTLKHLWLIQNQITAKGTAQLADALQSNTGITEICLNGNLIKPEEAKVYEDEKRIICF
The test is described as follows: Microscale thermophoresis (MST) binding to purified NOD1-GFP. The protocol:
The lysates were incubated with 2 ml GFP‐Trap agarose at 4°C for 4 h. The agarose was collected with Poly‐Prep columns by gravity flow. […] To remove heat shock proteins, columns were further washed with 50 ml wash buffer III (50 mM Tris–HCl, pH 7.5, 150 mM NaCl, 5 mM MgCl2+, 1 mM ATP). To elute the proteins, the agarose was mixed with 2 ml elution buffer (100 mM Glycine, pH 2.5) for 1 min and the eluted proteins were immediately neutralized with 0.2 ml of 1 M Tris, pH 10.5.
Background: In MST a laser heats a spot of the sample, and binding alters the fluorescence response.

A further test has as its target T2, NLRP3 (Homo sapiens, UniProt Q96P20).
T2 construct: Addgene (plasmid only) 73955
The test is described as follows: MST binding to NLRP3-GFP. To be noted: Fig 6C.

For another test, the system named is NOD1 and NOD2. The test is described as follows: Immunoprecipitation with lipid-coated beads. Type of test: binding, human. Conditions: HeLa NOD1-GFP / NOD2-GFP lysates, room temperature 2 h. The protocol:
(§1) HeLa NOD1 or NOD2 cells were grown overnight and afterward treated with doxycycline overnight to induce NOD1 or NOD2 expression. Cells of one 10‐cm dish were lysed with 500 µl of lysis buffer (25 mM Tris–HCl, pH 7.5, 150 mM NaCl, 1 mM EDTA, 1% NP‐40, and 5% glycerol) supplemented with protease inhibitors (Roche, 05892791001) on ice for 20 min. Lysates were centrifuged at 16,000 × g at 4°C for 10 min, and supernatants were mixed with GFP‐Trap agarose (ChromoTek GmbH, gta‐20) overnight at 4°C. Afterward, agaroses were washed twice with PBS and boiled with sample buffer for SDS–PAGE. For lipid‐coated beads IP, lipid‐coated beads were incubated with supernatants for 2 h at room temperature and then washed with lysis buffer for three times and boiled with sample buffer for SDS–PAGE.

A further test relates to NOD1/2-RIP2 interaction. The test is described as follows: GFP immunoprecipitation of NOD1/2 and Western blot for RIP2. Type of test: cell-based, human. Conditions: S1P 20 µM with digitonin, 1 h. As to the method:
as §1
In general terms: Immunoblotting shows a protein as a band on a membrane.

The test system of another test is NOD1/2. Put plainly: dSTORM imaging of HeLa NOD1 or NOD2 cells. Type of test: cell-based, human. Conditions: S1P 20 µM, 2 h. The protocol: For dSTORM, HeLa inducible NOD1‐GFP or NOD2‐GFP cells were grown on µ‐Slides with glass bottom (ibidi, Germany) and treated with doxycycline overnight to induce NOD1‐GFP or NOD2‐GFP expression. […] Then, cells were fixed with 4% (v:v) paraformaldehyde in PBS, pH 7.4 for 10 min at room temperature (RT). After washing twice with PBS, cells were incubated with 50 mM glycine in PBS, pH 7.4 for 10 min and permeabilized with 0.05% saponin (Sigma‐Aldrich, 47036), 1% BSA in PBS for 10 min. Rabbit anti‐GFP antibody (ChromoTek) and Alex Fluor 647‐conjugated goad anti‐rabbit antibody (Thermo Fisher Scientific) were diluted in PBS and incubated for 1 h at room temperature. The super resolution imaging was performed with Nanoimager S (Oxford Nanoimaging). For single particle tracking in live cells, Nanoimager S was pre‐warmed at 37°C. […] Medium was then replaced with fresh DMEM without phenol red. Live imaging was performed with Nanoimager S at acquisition speed of 100fps.

Where two headings read alike, the source gives them in different places.

T2 sequence (Q96P20 whole entry): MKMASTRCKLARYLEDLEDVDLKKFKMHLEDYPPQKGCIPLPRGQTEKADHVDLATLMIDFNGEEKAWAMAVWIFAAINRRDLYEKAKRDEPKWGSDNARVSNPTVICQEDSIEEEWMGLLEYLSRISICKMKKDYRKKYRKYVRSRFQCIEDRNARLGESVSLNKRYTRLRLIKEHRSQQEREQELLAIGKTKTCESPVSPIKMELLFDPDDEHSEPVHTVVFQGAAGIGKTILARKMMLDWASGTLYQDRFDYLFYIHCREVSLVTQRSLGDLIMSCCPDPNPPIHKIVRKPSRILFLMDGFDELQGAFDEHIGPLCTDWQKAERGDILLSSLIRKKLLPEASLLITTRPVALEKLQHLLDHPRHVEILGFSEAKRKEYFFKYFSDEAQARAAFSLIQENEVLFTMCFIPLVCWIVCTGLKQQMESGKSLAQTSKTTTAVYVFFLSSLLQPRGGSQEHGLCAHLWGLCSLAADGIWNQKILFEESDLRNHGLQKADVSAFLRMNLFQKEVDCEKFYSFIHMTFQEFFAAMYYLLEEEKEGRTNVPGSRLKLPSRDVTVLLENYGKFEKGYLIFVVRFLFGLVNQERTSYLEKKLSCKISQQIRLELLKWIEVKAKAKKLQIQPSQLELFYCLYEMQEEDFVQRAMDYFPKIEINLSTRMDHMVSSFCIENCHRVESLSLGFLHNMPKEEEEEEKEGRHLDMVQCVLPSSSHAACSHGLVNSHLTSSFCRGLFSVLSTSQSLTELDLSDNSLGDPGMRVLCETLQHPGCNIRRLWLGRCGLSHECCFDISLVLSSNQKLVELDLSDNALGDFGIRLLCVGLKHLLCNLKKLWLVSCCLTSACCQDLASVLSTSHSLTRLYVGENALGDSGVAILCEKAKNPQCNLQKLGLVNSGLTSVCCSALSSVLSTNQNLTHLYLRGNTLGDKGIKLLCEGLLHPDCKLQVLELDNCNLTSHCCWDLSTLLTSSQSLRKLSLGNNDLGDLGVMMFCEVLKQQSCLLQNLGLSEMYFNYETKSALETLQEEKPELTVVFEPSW
Description for NLRP3: Binding of NOD1, NOD2, GFP, or NLRP3‐GFP to different ligands was measured by microscale thermophoresis (MST). 20 nM GFP or GFP‐tagged proteins in MST buffer (PBS pH 7.4, containing 0.5% NP‐40 and 10 mM DTT) was incubated with different concentrations of ligands. Immediately, samples were loaded into standard glass capillaries (NanoTemper) and thermophoresis analysis was performed on a NanoTemper Monolith NT.115 instrument (40% LED, 80% MST power) at 22°C. A laser on‐time of 30 s and a laser off‐time of 5 s were used. The experiment was performed in triplicates, and the MST curves were fitted using NT analysis software to obtain the K d values.

With `CCCCCCCCCCCCC/C=C/[C@@H](O)[C@@H](N)COP(=O)(O)O` [S1P, sphingosine‐1‐phosphate], the Kd is 2090 ± 770 nM on NOD1 (Fig 6D, one representative experiment, read-out: Kd (NOD1/ligand)); 2290 ± 1970 nM on NOD1 (Fig EV5B, purified NOD1, read-out: Kd (NOD1/ligand)); roughly 2000 nM on NOD1 (Kd value of S1P interacting with NOD1, as stated in text); 1740 ± 430 nM at NOD1 (Kd(NOD1: S1P), Fig 7C, S1P alone); 2200 ± 510 nM on NOD1 (Kd(NOD1 WT: S1P), Fig 7E). The “Direct interaction with NLRP3 by MST” value on NLRP3 is “not observed”. For the same molecule, in the test on NOD1 and NOD2, the “Immunoprecipitation of NOD1 and NOD2 with lipid-coated beads” value is “specifically immunoprecipitated”. The “Interaction between NOD1/2 and RIP2” value in the test with NOD1/2-RIP2 interaction is “stimulated the interaction between NOD1/2 and RIP2”. In addition, in the test with NOD1/2, the “Oligomerization of NOD1/2” value is “oligomerization of NOD1/2 induced”.

For the origin of these results see paper PMC8246065 (The EMBO Journal, 2021).
